In patent US10556879B2, “Retinoid compound, preparation method therefor, intermediates thereof and application thereof” (SHANGHAI INSTITUTE OF ORGANIC CHEMISTRY, CHINESE ACADEMY OF …, priority 2016, dated 2020) one finds inhibition and IC50 data, which are given here for 37 compounds.

Molecules are shown by their SMILES. Where two headings read alike, the source gives them in different places.

For the test, the system named is tumor-repopulating cells of B16-F1 melanoma. Briefly: Inhibitory activity on proliferation of tumor-repopulating cells (TRCs) of B16-F1 melanoma in 3D fibrin gel. Format: cell-based. To be noted: Mus musculus; for IC50: B16-F1, dose-response curve, colony tumor volume, read-out: IC50 of inhibition on TRCs of B16-F1 melanoma/μM. The protocol:
B16-F1 Melanoma cells were incubated with 3D fibrin gel medium (90-Pa) for 5 days, and the desired tumor-repopulating cells of melanoma were screened (Nat. Mater. 2012, 11, 734). Subsequently, the culture medium was respectively treated with collagenase and neutral protease II, and the tumor-repopulating cells of B16-F1 melanoma were released, then the obtained repopulating cells were transferred to a freshly prepared medium to be resuspended and maintained at single-cell state. The tumor-repopulating cells of B16-F1 melanoma were inoculated in 3D fibrin gel medium (90-Pa) for 5 days, with 0.1% DMSO as the negative control group, Tazarotene and Bexarotene as the positive control drugs respectively, […] for 5 days. The colony tumor size was measured and calculated, and the inhibition rate of each drug on the tumor-repopulating cells of B16-F1 melanoma was calculated. The results of inhibitory activity of the compound of the present invention on the proliferation of tumor-repopulating cells of B16-F1 melanoma were shown in Table 2 below.

Setting [1] is: B16-F1, 120 h, 10 μM, incubated 5 days, colony tumor size, read-out: Inhibition rate on TRCs of B16-F1 melanoma at a concentration of 10 μM (%).
Setting [2] is: B16-F1, 10 μM (Table 3), read-out: Inhibition rate on TRCs of B16-F1 melanoma at a concentration of 10 μM/%.

On to `COC(=O)c1ccc(C#Cc2ccc3c(c2)C(C)(C)CCS3)cc1OC` [WYC-102, methyl 4-((4,4-dimethylthiochroman-6-yl)ethynyl)-2-methoxybenzoate], for which the inhibition at 10 µM under setting [1] is 59.1%.
Consider `CCOC(=O)c1ccc(C#Cc2ccc3c(c2)C(C)(C)CCS3)c(F)c1` [WYC-307, ethyl 3-fluoro-4-((4,4-dimethylthiochroman-6-yl)ethynyl)benzoate], for which the inhibition at 10 µM under setting [1] was determined as 70.3%.
As to `CC1(C)CCC(C)(C)c2cc(C#Cc3ccc(C(=O)O)c(O)c3)ccc21` [WYC-335, 2-hydroxy-4-((5,5,8,8-tetramethyl-5,6,7,8-tetrahydronaphth-2-yl)ethynyl)benzoic Acid], the inhibition at 10 µM under setting [1] amounted to 86.9%.
The same measure, in the same setting: with `CC1(C)CCSc2ccc(C#Cc3ccc(C(=O)O)c(Cl)c3)cc21` [WYC-327, 2-chloro-4-((4,4-dimethylthiochroman-6-yl)ethynyl)benzoic Acid] the figure was 75.7%; with `COC(=O)c1ncc(C#Cc2ccc3c(c2)C(C)(C)CCS3)cn1` [WYC-204, methyl 5-((4,4-dimethylthiochroman-6-yl)ethynyl)pyrimidin-2-carboxylate], 25.6%.
The same measure, in the same setting: as for `CC1(C)CCC(C)(C)c2cc(C#Cc3ccc(C(=O)O)nc3)ccc21` [WYC-337, 5-((5,5,8,8-tetramethyl-5,6,7,8-tetrahydronaphth-2-yl)ethynyl)pyridin-2-carboxylic Acid], the figure is 87.5%; as for `COC(=O)c1ncc(C#Cc2ccc3c(c2)C(C)(C)CCC3(C)C)cn1` [WYC-338, methyl 5-((5,5,8,8-tetramethyl-5,6,7,8-tetrahydronaphth-2-yl)ethynyl)pyrimidin-2-carboxylate], 69%; as for `CCOC(=O)c1ccc(C#Cc2ccc3c(c2)C(C)(C)CC[S+]3[O-])cc1N` (stereo not shown) [WYC-218, ethyl 2-amino-4-((4,4-dimethyl-1-oxothiochroman-6-yl)ethynyl)benzoate], 90.4%.
The same measure, in the same setting: with `CC1(C)CCSc2ccc(C#Cc3ccc(C(=O)O)cc3[N+](=O)[O-])cc21` [WYC-309, 3-nitro-4-((4,4-dimethylthiochroman-6-yl)ethynyl)benzoic Acid] the figure was 56.8%.
For `CC1(C)CCSc2ccc(C#Cc3ccc(C(=O)O)c(F)c3)cc21` [WYC-304, 2-fluoro-4-((4,4-dimethylthiochroman-6-yl)ethynyl)benzoic Acid], the inhibition at 10 µM under setting [1] stood at 75.8%.
For `CCOC(=O)c1ccc(C#Cc2ccc3c(c2)C(c2ccccc2)=CCC3(C)C)cc1O` [WYC-302, ethyl 4-((5,5-dimethyl-8-phenyl-5,6-dihydronaphth-2-yl)ethynyl)-2-hydroxybenzoate], the inhibition at 10 µM under setting [1] was determined as 21.9%.
The same measure, in the same setting: with `CCOC(=O)c1ccc(C#Cc2ccc3c(c2)C(C)(C)CC[S+]3[O-])cc1Cl` (stereo not shown) [WYC-326, ethyl 2-chloro-4-((4,4-dimethyl-1-oxothiochroman-6-yl)ethynyl)benzoate] the figure was 73.4%.
As for `CC1(C)CC[S+]([O-])c2ccc(C#Cc3cnc(C#N)nc3)cc21` (stereo not shown) [WYC-207, 2-cyano-5-((4,4-dimethyl-1-oxothiochroman-6-yl)ethynyl)pyrimidine], the IC50 came out at 3.3 µM. Further, under setting [1], the inhibition at 10 µM stood at 92.5%. Also, the inhibition at 10 µM under setting [2] came to 92.5%.
Regarding `CCOC(=O)c1ccc(C#Cc2ccc3c(c2)C(C)(C)CC[S+]3[O-])c(F)c1` (stereo not shown) [WYC-312, ethyl 3-fluoro-4-((4,4-dimethyl-1-oxothiochroman-6-yl)ethynyl)benzoate], under setting [1], the inhibition at 10 µM is 71%.
`CCOC(=O)c1cnc(C#Cc2ccc3c(c2)C(C)(C)CC[S@@+]3[O-])nc1` [WYC-209B, ethyl 2-((4,4-dimethyl-1R-oxothiochroman-6-yl)ethynyl)pyrimidin-5-carboxylate]: the IC50 stood at 0.22 µM. Also, under setting [1], the inhibition at 10 µM is 98.7%. Also, the inhibition at 10 µM under setting [2] came to 98.7%.
On to `COC(=O)c1ccc(C#Cc2ccc3c(c2)C(c2ccccc2)=CCC3(C)C)cc1O` [WYC-301, methyl 4-((5,5-dimethyl-8-phenyl-5,6-dihydronaphth-2-yl)ethynyl)-2-hydroxybenzoate], for which the inhibition at 10 µM under setting [1] turned out to be 34.4%.
Turning to `CCOC(=O)c1ccc(C#Cc2ccc3c(c2)C(C)(C)CCS3)c(F)c1F` [WYC-313, ethyl 2,3-difluoro-4((4,4-dimethylthiochroman-6-yl)ethynyl)benzoate], the inhibition at 10 µM under setting [1] amounted to 62.2%.
Take `CC(=O)Nc1cc(C(=O)O)ccc1C#Cc1ccc2c(c1)C(C)(C)CCS2` [WYC-319, 3-acetamido-4-((4,4-dimethylthiochroman-6-yl)ethynyl)benzoic Acid]: under setting [1], the inhibition at 10 µM was found to be 65.8%.
In the case of `CC1(C)CCSc2ccc(C#Cc3ccc(C(=O)O)c(O)c3)cc21` [WYC-105, 4-((4,4-dimethylthiochroman-6-yl)ethynyl)-2-hydroxybenzoic Acid], the inhibition at 10 µM (B16-F1, 120 h, read-out: Inhibition rate on TRCs of B16-F1 melanoma at a concentration of 10 μM (%)) is 64.1%.
In the case of `CC1(C)CCSc2ccc(C#Cc3ccc(C(=O)O)c(N)c3)cc21` [WYC-212, 2-amino-4-((4,4-dimethylthiochroman-6-yl)ethynyl)benzoic Acid], the IC50 is 2.28 µM. Besides, under setting [1], the inhibition at 10 µM was found to be 93.2%. The inhibition at 10 µM under setting [2] turned out to be 93.2%.
On to `CC1(C)CCSc2ccc(C#Cc3cnc(C(=O)O)cn3)cc21` [WYC-323, 5-((4,4-dimethylthiochroman-6-yl)ethynyl)pyrazin-2-carboxylic Acid], for which the inhibition at 10 µM under setting [1] came to 76%.
Same read-out and setting: as for `CCOC(=O)c1ccc(C#Cc2ccc3c(c2)C(C)(C)CCS3)c([N+](=O)[O-])c1` [WYC-308, ethyl 3-nitro-4-((4,4-dimethylthiochroman-6-yl)ethynyl)benzoate], the figure is 71.9%; as for `CC1(C)CC[S+]([O-])c2ccc(C#Cc3ncc(C(=O)O)cn3)cc21` (stereo not shown) [WYC-210, 2-((4,4-dimethyl-1-oxothiochroman-6-yl)ethynyl)pyrimidin-5-carboxylic Acid], 18.1%.
Still for that read-out and setting: as for `CC1(C)CCSc2ccc(C#Cc3ccc(C(=O)O)c(F)c3F)cc21` [WYC-314, 2,3-difluoro-4((4,4-dimethylthiochroman-6-yl)ethynyl)benzoic Acid], the figure is 70.1%; as for `CCOC(=O)c1ncc(C#Cc2ccc3c(c2)C(C)(C)CCC3(C)C)cn1` [WYC-334, ethyl 5-((5,5,8,8-tetramethyl-5,6,7,8-tetrahydronaphth-2-yl)ethynyl)pyrimidin-2-carboxylate], 80.6%.
The same measure, in the same setting: as for `CCOC(=O)c1cnc(C#Cc2ccc3c(c2)C(C)(C)CCS3)cn1` [WYC-322, ethyl 5-((4,4-dimethylthiochroman-6-yl)ethynyl)pyrazin-2-carboxylate], the figure is 78.8%; as for `COC(=O)c1ccc(C#Cc2ccc3c(c2)C(C)(C)CCS3)c(NC(C)=O)c1` [WYC-316, methyl 3-acetamido-4-((4,4-dimethylthiochroman-6-yl)ethynyl)benzoate], 76.2%; as for `CC1(C)CC=C(c2ccccc2)c2cc(C#Cc3ccc(C(=O)O)c(F)c3)ccc21` [WYC-306, 4-((5,5-dimethyl-8-phenyl-5,6-dihydronaphth-2-yl)ethynyl)-2-fluorobenzic Acid], 15.2%.
Regarding `CNc1cc(C#Cc2ccc3c(c2)C(C)(C)CCS3)ccc1C(=O)OC` [WYC-219, methyl 2-methylamino-4-((4,4-dimethylthiochroman-6-yl)ethynyl)benzoate], under setting [1], the inhibition at 10 µM came out at 64.8%.
The same measure, in the same setting: with `CCOC(=O)c1ncc(C#Cc2ccc3c(c2)C(C)(C)CC[S+]3[O-])cn1` (stereo not shown) [WYC-208, ethyl 5-((4,4-dimethyl-1-oxothiochroman-6-yl)ethynyl)pyrimidin-2-carboxylate] the figure was 27.7%.
On the same count and under the same terms, with `COC(=O)c1ccc(C#Cc2ccc3c(c2)C(C)(C)CCS3)cc1O` [WYC-101, methyl 4-((4,4-dimethylthiochroman-6-yl)ethynyl)-2-hydroxybenzoate] the figure was 76%.
Take `CC1(C)CCC(C)(C)c2cc(C#Cc3ccc(C#N)cn3)ccc21` [WYC-333, 2-((5,5,8,8-tetramethyl-5,6,7,8-tetrahydronaphth-2-yl)ethynyl)-5-cyanopyridine]: the inhibition at 10 µM under setting [1] was 69.1%.
On the same count and under the same terms, with `CC1(C)CCC(C)(C)c2cc(C#Cc3ccc(C(=O)O)c(N)c3)ccc21` [WYC-330, 2-amino-4-((5,5,8,8-tetramethyl-5,6,7,8-tetrahydronaphth-2-yl)ethynyl)benzoic Acid] the figure was 79%; with `CCOC(=O)c1ncc(C#Cc2ccc3c(c2)C(C)(C)CCS3)cn1` [WYC-205, ethyl 5-((4,4-dimethylthiochroman-6-yl)ethynyl)pyrimidin-2-carboxylate], 91.5%; with `CCOC(=O)c1ccc(C#Cc2ccc3c(c2)C(c2ccccc2)=CCC3(C)C)cc1F` [WYC-305, ethyl 4-((5,5-dimethyl-8-phenyl-5,6-dihydronaphth-2-yl)ethynyl)-2-fluorobenzoate], 26%.
Same read-out and setting: with `COC(=O)c1ccc(C#Cc2ccc3c(c2)C(C)(C)CCS3)cc1N` [WYC-220, methyl 2-amino-4-((4,4-dimethylthiochroman-6-yl)ethynyl)benzoate] the figure was 65.5%.
On the same count and under the same terms, as for `COc1cc(C#Cc2ccc3c(c2)C(C)(C)CCS3)ccc1C(=O)O` [WYC-106], the figure is 72.4%.
